In the OligoGym collection:
Values joined by “and” are separate entries in the source; they are usually repeats but may differ in a detail not shown here. Equal values may be shown once. After the bases stand the sugars from the 5' end (letter, count) and the backbone: PS all phosphorothioate, else s phosphorothioate and o phosphodiester by linkage. Methylation of C is not given here. e = 2'-O-(2-methoxyethyl) (MOE); k = constrained ethyl (cEt); d = 2'-deoxy (DNA)

Biological target: APOL1
Conditions: ASO

Row | Sequence | target mRNA inhibition (A431, 0.0625 µM) | target mRNA inhibition (A431, 0.25 µM) | target mRNA inhibition (A431, 1 µM) | target mRNA inhibition (A431, 2 µM) [%] | further results
1 | CACTTTACATGCACGA (sugars k4 d9 k3, PS) | 26% | 65% | 85% |  | 
2 | CACTTTATACCAGTGT (sugars kkddddekekeddddd, PS) |  |  |  | 0 | 
3 | CAGTTCCCATTTTTCC (sugars k4 d9 k3, PS) | 62% | 83% | 94% |  | 
4 | CAGTTTTGTAAGTGCA (sugars k3 d4 k3 e1 d5, PS) |  |  |  | 92 | 
5 | CAGTTTTGTAAGTGCA (sugars k3 d5 k3 d5, PS) |  |  |  | 97 | 
6 | CAGTTTTGTAAGTGCA (sugars kkddddekekeddddd, PS) |  |  |  | 91 | 
7 | CAGTTTTGTAAGTGCA (sugars kkddddkekekddddd, PS) |  |  |  | 91 | 
8 | CAGTTTTGTAAGTGCA (sugars kkddddkekekkdddd, PS) |  |  |  | 18 | 
9 | CATTCAGAATTTCCAC (sugars k3 d5 k3 d5, PS) |  |  |  | 94 | 
10 | CATTCAGAATTTCCAC (sugars kdddddkekekddddd, PS) |  |  |  | 67 | 
11 | CATTCAGAATTTCCAC (sugars kkdddddkekeddddd, PS) |  |  |  | 84 | 
12 | CATTCAGAATTTCCAC (sugars kkddddkdkdkddddd, PS) |  |  |  | 84 | 
13 | CATTCAGAATTTCCAC (sugars kkkddddkdkdkdddd, PS) |  |  |  | 88 | 
14 | CATTCAGAATTTCCAC (sugars kkkddddkekekdddd, PS) |  |  |  | 65 | 
15 | CCACATTTGAGATTAT (sugars k4 d9 k3, PS) | 37% | 72% | 90% |  | 
16 | CCAGCAAAGACAAGAA (sugars k4 d9 k3, PS) | 9% and 0% | 49% and 30% | 64% and 55% and 50% |  | 
17 | CCCCTGCCAGGCATAT (sugars k4 d9 k3, PS) | 22% | 42% | 44% |  | 
18 | CCTTAATGTAAATTCC (sugars k4 d9 k3, PS) | 32% | 61% | 80% |  | 
19 | CCTTACTGCAGTTTCA (sugars k4 d9 k3, PS) | 47% | 79% | 91% |  | 

Row | Sequence | target mRNA inhibition (A431, 0.0625 µM) | target mRNA inhibition (A431, 0.25 µM) | target mRNA inhibition (A431, 1 µM) | target mRNA inhibition (A431, 2 µM) [%] | further results
20 | CGATTGTCTTGTTTTT (sugars k4 d9 k3, PS) | 70% and 79% | 90% and 88% | 97% and 94% |  | 
21 | CGCAATGCTGACTTGG (sugars k2 d4 e4 k2 d4, PS) |  |  |  | 68 | 
22 | CGTCAATATATTCTTT (sugars k2 d4 e3 k2 d5, PS) |  |  |  | 81 | 
23 | CGTCAATATATTCTTT (sugars k3 d5 k3 d5, PS) | 56% and 62% | 84% and 87% | 93% | 94 | target mRNA inhibition (A431, 0.0156 µM): 38%
24 | CGTCAATATATTCTTT (sugars kddddkekekeddddd, PS) | 46% | 78% | 90% | 96 | target mRNA inhibition (A431, 0.0156 µM): 0%
25 | CGTCAATATATTCTTT (sugars kekddddeekkddddd, PS) |  |  |  | 93 | 
26 | CGTCAATATATTCTTT (sugars kkddddkekekkdddd, PS) | 36% | 70% | 88% | 95 | target mRNA inhibition (A431, 0.0156 µM): 3%
27 | CGTGTTATATTTGATC (sugars kkddddkekekddddd, PS) |  |  |  | 88 | 
28 | CTAATTTTCTGACTGT (sugars k3 d4 k3 e1 d5, PS) | 69% | 88% | 99% and 96% | 99 | target mRNA inhibition (A431, 0.0156 µM): 35%; target mRNA inhibition (A431, 0.04 µM): 59%
29 | CTAATTTTCTGACTGT (sugars kkddddkekekddddd, PS) |  |  |  | 83 | 
30 | CTGTTCTAACTCTTGG (sugars k2 d4 e3 k2 d5, PS) |  |  |  | 93 | 
31 | CTGTTCTAACTCTTGG (sugars kkkddddkekekdddd, PS) |  |  |  | 88 | 
32 | CTTGTTTTATGGAGTC (sugars k4 d9 k3, PS) | 85% and 91% | 97% | 99% |  | 
33 | CTTTAAACTCAGGTGA (sugars k2 d4 e3 k2 d5, PS) | 40% | 61% | 85% | 92 | target mRNA inhibition (A431, 0.0156 µM): 19%
34 | CTTTAAACTCAGGTGA (sugars kdddddkekekddddd, PS) |  |  |  | 77 | 
35 | CTTTAAACTCAGGTGA (sugars kkddddekekeddddd, PS) |  |  |  | 91 | 
36 | CTTTAAACTCAGGTGA (sugars kkddddkekekddddd, PS) |  |  |  | 82 | 
37 | CTTTATACCAGTGTCT (sugars k3 d4 k3 e1 d5, PS) | 54% | 78% | 91% | 95 | target mRNA inhibition (A431, 0.0156 µM): 19%
38 | CTTTATACCAGTGTCT (sugars kdddddkekekddddd, PS) |  |  |  | 89 | 

Row | Sequence | target mRNA inhibition (A431, 0.0625 µM) | target mRNA inhibition (A431, 0.25 µM) | target mRNA inhibition (A431, 1 µM) | target mRNA inhibition (A431, 2 µM) [%] | further results
39 | CTTTATACCAGTGTCT (sugars kddddkekekeddddd, PS) |  |  |  | 92 | 
40 | CTTTATACCAGTGTCT (sugars kkddddkekekkdddd, PS) |  |  |  | 87 | 
41 | CTTTATACCAGTGTCT (sugars kkkddddkekeddddd, PS) |  |  |  | 94 | 
42 | CTTTATACCAGTGTCT (sugars kkkddddkekekdddd, PS) |  |  |  | 76 | 
43 | GAAAATATCAGAGTGT (sugars k4 d9 k3, PS) | 29% | 68% | 90% |  | 
44 | GAACGCAATGCTGACT (sugars kkddddkekekddddd, PS) |  |  |  | 78 | 
45 | GAAGATTGGCTCTGGC (sugars kdddddkekekddddd, PS) |  |  |  | 44 | 
46 | GAAGATTGGCTCTGGC (sugars kkdddddkekeddddd, PS) |  |  |  | 70 | 
47 | GAAGATTGGCTCTGGC (sugars kkddddkdkdkddddd, PS) |  |  |  | 79 | 
48 | GAAGCTTTAAACTCAG (sugars k4 d9 k3, PS) | 41% | 65% | 82% |  | 
49 | GAAGCTTTAAACTCAG (sugars kkddddekekeddddd, PS) |  |  |  | 62 | 
50 | GAAGCTTTAAACTCAG (sugars kkkddddkekekdddd, PS) |  |  |  | 47 | 
51 | GAATTATGGAATTGCA (sugars k2 d4 e3 k2 d5, PS) |  |  |  | 94 | 
52 | GAATTATGGAATTGCA (sugars kkdddddkekeddddd, PS) | 38% | 75% | 86% | 92 | target mRNA inhibition (A431, 0.0156 µM): 17%
53 | GACTTGTTTTATGGAG (sugars k4 d9 k3, PS) | 75% | 88% | 92% |  | 
54 | GAGTATTGTTTTTGTG (sugars k2 d4 e3 k2 d5, PS) | 72% | 91% | 96% | 97 | target mRNA inhibition (A431, 0.0156 µM): 38%
55 | GAGTATTGTTTTTGTG (sugars kdddddkekekddddd, PS) |  |  |  | 90 | 
56 | GAGTATTGTTTTTGTG (sugars kddddkekekeddddd, PS) |  |  |  | 94 | 
